Data on 26 molecules can be found in patent US9593136B2 (priority 2011, dated 2017).

What is called IC50 is the point on the concentration scale where inhibition reaches its midpoint. A high value points to weaker potency in that assay.

For one assay, the system named is Mtb H37Rv (ATCC 27294). Briefly: microbe, parasite or virus in culture. In kind it is cell-based, Mycobacterium tuberculosis. Particulars: for MIC: Mycobacterium tuberculosis.
For the next assay, the target named is M. tuberculosis Dxr (Mycobacterium tuberculosis, UniProt P9WNS1). The experiment in a line: biochemical.
Sequence of M. tuberculosis Dxr (P9WNS1 whole entry, looked up): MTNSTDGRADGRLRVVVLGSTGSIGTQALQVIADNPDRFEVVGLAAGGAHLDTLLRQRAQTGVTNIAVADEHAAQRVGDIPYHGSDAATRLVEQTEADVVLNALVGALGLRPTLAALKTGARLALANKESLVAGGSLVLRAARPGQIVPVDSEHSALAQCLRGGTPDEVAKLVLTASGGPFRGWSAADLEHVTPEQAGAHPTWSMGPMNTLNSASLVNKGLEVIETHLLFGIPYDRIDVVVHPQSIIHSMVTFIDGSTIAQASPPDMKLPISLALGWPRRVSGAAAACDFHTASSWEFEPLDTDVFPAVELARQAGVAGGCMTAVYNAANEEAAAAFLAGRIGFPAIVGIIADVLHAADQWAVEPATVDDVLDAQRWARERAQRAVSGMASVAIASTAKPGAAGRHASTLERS
The mark [1] stands for this setting: read-out: Mtb MIC (ug/mL) (7H9).
The mark [2] stands for this setting: read-out: Mtb MIC (ug/mL) (GAST).

Values after ≈ are worked out from the molar mass of the structure shown. Where two headings read alike, the source gives them in different places. Where only a bound is given, the exact number is not on record here.

With `CCOP(=O)(CCCN(OCc1ccccc1-c1ccccc1)C(C)=O)OCC` [GSJ101], the MIC with Mtb H37Rv (ATCC 27294) (read-out: Mtb MIC (ug/mL)) was 200 to 400 µg/mL (≈ 477 to 954 µM). Turning to `CCOP(=O)(CCN(O)C(C)=O)OCC` [Compound 5f], in the assay with Mtb H37Rv (ATCC 27294), the “MIC 7H9” value is >500 µg/mL and the “MIC GAST/Fe” value is >500 µg/mL. For `CCOP(=O)(CCN(O)C=O)OCC` [Compound 5b], in the assay with Mtb H37Rv (ATCC 27294), the “MIC 7H9” value is >500 µg/mL and the “MIC GAST/Fe” value is >500 µg/mL.

As for `CCOP(=O)(CCCN(O)C(C)=O)OCC` [GSJ21], in the assay with Mtb H37Rv (ATCC 27294), the “Mtb MIC” value is >200 µg/mL. Regarding `O=C(CCCc1ccccc1)N(O)CCCP(=O)(O)O` [GSJ 52], the MIC in the assay with Mtb H37Rv (ATCC 27294) (read-out: Mtb MIC (ug/mL)) is > 200 µg/mL. The IC50 at M. tuberculosis Dxr (IC50 (uM)) is 3.12 µM; on M. tuberculosis Dxr (IC50 (ug/ml)) it was 3.35 µM; against M. tuberculosis Dxr (Mtb Dxr IC50 (ug/mL)) it was 3.35 µM. For `CCOP(=O)(CCCN(O)C(=O)C1CC1)OCC` [ERJ 119], in the assay with Mtb H37Rv (ATCC 27294), the “Mtb MIC (ug/mL) (7H9)” value is reported as >200 (7H9) >200 (GAST) ug/mL and the “Mtb MIC (ug/mL) (GAST)” value was >200 (7H9) >200 (GAST) ug/mL. On M. tuberculosis Dxr (IC50 (μM)), `CC(=O)N(CCCP(=O)(O)O)OCC1CCCCC1` [Compound 6, Sodium hydrogen 3-(N-(cyclohexylmethoxy)acetamido)propylphosphonate] returned an IC50 of 198 µM. `CCOP(=O)(CCCN(OCc1ccc(-c2ccccc2)cc1)C(C)=O)OCC` [GSJ72]: the MIC turned out to be 200 µg/mL (≈ 477 µM) with Mtb H37Rv (ATCC 27294) (setting [1]) and 100 µg/mL (≈ 238 µM) in the assay with Mtb H37Rv (ATCC 27294) (setting [2]). In the case of `CCOP(=O)(CCCN(O)C(=O)C1CCCCC1)OCC` [ERJ 112], the MIC is > 200 µg/mL in the assay on Mtb H37Rv (ATCC 27294) (setting [1]) and 100 µg/mL (≈ 311 µM) in the assay with Mtb H37Rv (ATCC 27294) (setting [2]). With `O=C(NCCCP(=O)(O)O)c1ccc2ccccc2c1` [GSJ 56], the MIC in the assay with Mtb H37Rv (ATCC 27294) (read-out: Mtb MIC (ug/mL)) was > 200 µg/mL. Also, the remaining activity at 100 µg/mL on M. tuberculosis Dxr (read-out: Mtb Dxr, value in parentheses (percent enzyme activity remaining)) came to 90%; on M. tuberculosis Dxr (read-out: percent enzyme activity remaining at 100 ug/ml compound) it was 90%. At M. tuberculosis Dxr (IC50 (μM)), `CC(=O)N(CCCP(=O)(O)O)OCc1ccc(C(C)C)cc1` [Compound 5, Sodium hydrogen 3-(N-(4-isopropylbenzyloxy)acetamido)propylphosphonate] returned an IC50 of 50.6 µM. Still for that read-out and setting: the value for `O=C(CCCc1ccccc1)N(O)CCCP(=O)(O)O` [Compound 8, Sodium hydrogen 3-(N-hydroxy-4-phenylbutanamido)propylphosphonate] was 3.1 µM.

As for `CC(=O)N(CCCP(=O)(O)O)OCCCc1ccccc1` [Compound 4, Sodium hydrogen 3-(N-(3-phenylpropoxy)acetamido)propylphosphonate], on M. tuberculosis Dxr (read-out: % Remaining Enzyme Activity at 100 μg/mL), the remaining activity at 100 µg/mL was found to be 100%.

With `CCOP(=O)(CCCN(OCC1CCCCC1)C(C)=O)OCC` [GSJ71], the MIC in the assay on Mtb H37Rv (ATCC 27294) (setting [1]) was ≥ 400 µg/mL; in the assay on Mtb H37Rv (ATCC 27294) (setting [2]) it was 200 to 400 µg/mL (≈ 572 to 1140 µM). Take `O=C(C1CC1)N(O)CCCP(=O)([O-])O.[Na+]` [ERJ 123]: in the assay on Mtb H37Rv (ATCC 27294) (read-out: Mtb MIC (ug/mL)), the MIC is > 400 µg/mL. With `CC(=O)N(CCCP(=O)(O)O)OCc1ccc(-c2ccccc2)cc1` [GSJ74], the MIC in the assay on Mtb H37Rv (ATCC 27294) (read-out: Mtb MIC (ug/mL)) lay within 25 to 50 µg/mL (≈ 68.8 to 138 µM). The molecule also had an IC50 at M. tuberculosis Dxr (Mtb Dxr IC50 (ug/mL)) of 68.6 µM. For `CC(=O)N(CCCP(=O)(O)O)OC(C)c1ccccc1` (stereo not shown) [GSJ 63], the MIC in the assay with Mtb H37Rv (ATCC 27294) (read-out: Mtb MIC (ug/mL)) was > 200 µg/mL. The figures for the IC50 on M. tuberculosis Dxr (IC50 (uM)), against M. tuberculosis Dxr (IC50 (ug/ml)) and on M. tuberculosis Dxr (Mtb Dxr IC50 (ug/mL)) were 161 µM, 173 µM and 173 µM, respectively. In the case of `CCOP(=O)(CCCN(OCc1cccc(-c2ccccc2)c1)C(C)=O)OCC` [GSJ100], in the assay with Mtb H37Rv (ATCC 27294) (read-out: Mtb MIC (ug/mL)), the MIC worked out at 100 µg/mL (≈ 238 µM).

Turning to `O=C(CCc1ccccc1)N(O)CCCP(=O)(O)O` [GSJ 51], in the assay on Mtb H37Rv (ATCC 27294) (read-out: Mtb MIC (ug/mL)), the MIC is > 200 µg/mL. Besides, the IC50 against M. tuberculosis Dxr (IC50 (uM)) was 2.72 µM; against M. tuberculosis Dxr (IC50 (ug/ml)), 2.92 µM; on M. tuberculosis Dxr (Mtb Dxr IC50 (ug/mL)) it was 2.92 µM. On to `CCOP(=O)(CCCN(OCCc1ccc(O)cc1)C(C)=O)OCC` [GSJ80], for which, in the assay with Mtb H37Rv (ATCC 27294) (read-out: Mtb MIC (ug/mL)), the MIC was in the range of 200 to 400 µg/mL (≈ 536 to 1070 µM).

In the case of `CCOP(=O)(CCCN(OCc1ccc(C(C)C)cc1)C(C)=O)OCC` [GSJ70], the MIC with Mtb H37Rv (ATCC 27294) (setting [1]) stood at 400 µg/mL (≈ 1040 µM); in the assay on Mtb H37Rv (ATCC 27294) (setting [2]), 200 µg/mL (≈ 519 µM). As for `CC(=O)N(CCCP(=O)(O)O)OCC1CCCCC1` [GSJ75], in the assay with Mtb H37Rv (ATCC 27294) (read-out: Mtb MIC (ug/mL)), the MIC was > 200 µg/mL. The same molecule gave a concentration for half-maximal inhibition (IC50) at M. tuberculosis Dxr (Mtb Dxr IC50 (ug/mL)) of 212 µM. With `CCOP(=O)(CCCN(OCc1ccc(Br)cc1)C(C)=O)OCC` [GSJ113], the MIC in the assay with Mtb H37Rv (ATCC 27294) (read-out: Mtb MIC (ug/mL)) is 400 µg/mL (≈ 947 µM). For `O=C(Cc1ccccc1)N(O)CCCP(=O)(O)O` [GSJ 55], the MIC with Mtb H37Rv (ATCC 27294) (read-out: Mtb MIC (ug/mL)) is > 200 µg/mL. Further, the IC50 against M. tuberculosis Dxr (IC50 (uM)) is 7.49 µM; against M. tuberculosis Dxr (IC50 (ug/ml)), 8.09 µM; against M. tuberculosis Dxr (Mtb Dxr IC50 (ug/mL)) it was 8.09 µM. Regarding `CC(=O)N(CCCP(=O)(OCOC(=O)C(C)(C)C)OCOC(=O)C(C)(C)C)OCc1ccc(C(C)C)cc1` [GSJ96], the MIC in the assay on Mtb H37Rv (ATCC 27294) (read-out: Mtb MIC (ug/mL)) came to 12.5 µg/mL (≈ 22.4 µM). Regarding `CCOP(=O)(CCCN(OCc1cccc2ccccc12)C(C)=O)OCC` [GSJ116], in the assay on Mtb H37Rv (ATCC 27294) (read-out: Mtb MIC (ug/mL)), the MIC was found to be 400 µg/mL (≈ 1020 µM).
